Structures can show the parent of a compound that is named as a salt.
Assays:
p38alpha = biological target: T1, p38alpha (Homo sapiens, UniProt Q16539); assay: P38Alpha enzyme inhibition assay (Alphascreen kinase activity assay); assay type: biochemical; settings: 100 pM p38alpha, 250 μM ATP, 2 hours pre-incubation at 25° C., read-out: p38α inhibition (IC50 values)
T1 construct: purchased Invitrogen PV3304
Summary of the method: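 AlphaScreen read-out: after an EDTA stop, an anti-phospho-ATF2 antibody with Protein A acceptor and donor beads measured substrate phosphorylation. Compounds sat 2 h at 25°C with 100 pM p38α and 0.3 µg/ml ATF-2 fusion protein (pH 7.5, 1% DMSO) before 250 µM ATP was added for 1 h. IC50 from dose-response.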

[1] = system: LPS-stimulated TNFα release from PBMCs; assay: LPS-stimulated PBMC TNFα release assay; assay type: cell-based; settings: inhibition of TNFα release, human PBMCs, LPS 10 ng/ml, 18 h, ELISA, read-out: p38α inhibition (IC50 values)
Summary of the method: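 TNFα in supernatants measured by ELISA after 18 h LPS (10 ng/ml) challenge of human PBMCs given 1 h compound pretreatment at 37 °C in medium with 1% FBS. Percent inhibition versus control release fitted to dose-response curves for IC50; at least three independent runs.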

T1 sequence (Q16539 whole entry): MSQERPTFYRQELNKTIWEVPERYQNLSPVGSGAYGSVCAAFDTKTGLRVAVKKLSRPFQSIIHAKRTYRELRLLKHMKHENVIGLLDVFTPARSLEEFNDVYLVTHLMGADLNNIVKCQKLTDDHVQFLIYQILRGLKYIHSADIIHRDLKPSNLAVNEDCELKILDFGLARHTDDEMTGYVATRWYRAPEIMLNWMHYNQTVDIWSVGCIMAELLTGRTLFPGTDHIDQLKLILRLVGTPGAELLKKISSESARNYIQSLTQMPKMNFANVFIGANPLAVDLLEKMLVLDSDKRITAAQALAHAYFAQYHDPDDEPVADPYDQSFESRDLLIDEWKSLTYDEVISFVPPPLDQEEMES

IC50 (p38alpha) | SMILES | IC50 [1]
< 10 nM | Cc1ccc(-n2nc(C(C)(C)C)cc2NC(=O)N[C@H]2CC[C@@H](Oc3ccc4nnc(C5CN(C)CCN5C)n4c3)c3ccccc32)cc1 (stereo partly drawn) [Example 86, 1-(5-tert-Butyl-2-p-tolyl-2H-pyrazol-3-yl)-3-{(1S,4R)-4-[3-(1,4-dimethyl-piperazin-2-yl)-[1,2,4]triazolo[4,3-a]pyridin-6-yloxy]-1,2,3,4-tetrahydro-naphthalen-1-yl}-urea formate salt] | < 10 nM
< 10 nM | C[C@H]1CCCCN1c1nnc2ccc(O[C@@H]3CC[C@H](NC(=O)Nc4cc(C(C)(C)C)nn4-c4cccc(OCCN(C)C)c4)c4ccccc43)cn12 [Example 95] | < 10 nM
< 10 nM | C[C@@H]1CCC[C@H](C)N1c1nnc2ccc(O[C@@H]3CC[C@H](NC(=O)Nc4cc(C(C)(C)C)nn4CCO)c4ccccc43)cn12 [Example 118, 1-[5-tert-Butyl-2-(2-hydroxy-ethyl)-2H-pyrazol-3-yl]-3-{(1S,4R)-4-[3-((2S,6R)-2,6-dimethyl-piperidin-1-yl)-[1,2,4]triazolo[4,3-a]pyridin-6-yloxy]-1,2,3,4-tetrahydro-naphthalen-1-yl}-urea] | < 10 nM
< 10 nM | C[C@H]1CCCCN1c1nnc2ccc(O[C@@H]3CC[C@H](NC(=O)Nc4cc(C(C)(C)C)nn4CCN4CCCCC4)c4ccccc43)cn12 [Example 128, 1-[5-tert-Butyl-2-(2-piperidin-1-yl-ethyl)-2H-pyrazol-3-yl]-3-{(1S,4R)-4-[3-((S)-2-methyl-piperidin-1-yl)-[1,2,4]triazolo[4,3-a]pyridin-6-yloxy]-1,2,3,4-tetrahydro-naphthalen-1-yl}-urea formate salt] | < 10 nM
< 10 nM | CN1CCC[C@H]1c1nnc2ccc(O[C@H]3C[C@H](NC(=O)Nc4cc(C(C)(C)C)nn4-c4ccc(CO)cc4)c4ccccc43)cn12 [Example 37, 1-[5-tert-Butyl-2-(4-hydroxymethyl-phenyl)-2H-pyrazol-3-yl]-3-{(1S,3S)-3-[3-((S)-1-methyl-pyrrolidin-2-yl)-[1,2,4]triazolo[4,3-a]pyridin-6-yloxy]-indan-1-yl}-urea] | < 10 nM
< 10 nM | Cc1ccc(-n2nc(C(C)(C)C)cc2NC(=O)N[C@H]2CC[C@@H](Oc3ccc4nnc(N5CCCCC5)n4c3)c3ccccc32)cn1 [Example 102, 1-[5-tert-Butyl-2-(6-methyl-pyridin-3-yl)-2H-pyrazol-3-yl]-3-[(1S,4R)-4-(3-piperidin-1-yl-[1,2,4]triazolo[4,3-a]pyridin-6-yloxy)-1,2,3,4-tetrahydro-naphthalen-1-yl]-urea] | < 10 nM

Further lines, the compound ahead of its results:

SMILES | IC50 (p38alpha) | IC50 [1]
Cc1ccc(-n2nc(C(C)(C)C)cc2NC(=O)N[C@H]2CC[C@@H](Oc3ccc(C#N)nc3)c3ccccc32)cc1 [Example 9, 1-(5-tert-Butyl-2-p-tolyl-2H-pyrazol-3-yl)-3-[(1S,4R)-4-(6-cyano-pyridin-3-yloxy)-1,2,3,4-tetrahydro-naphthalen-1-yl]-urea] | < 10 nM | 100 to 1000 nM
Cc1ccc(-n2nc(C(C)(C)C)cc2NC(=O)N[C@H]2CC[C@@H](Oc3ccc4cnn(CCO)c4c3)c3ccccc32)cc1 [Example 11, 1-(5-tert-Butyl-2-p-tolyl-2H-pyrazol-3-yl)-3-{(1S,4R)-4-[1-(2-hydroxy-ethyl)-1H-indazol-6-yloxy]-1,2,3,4-tetrahydro-naphthalen-1-yl}-urea] | < 10 nM | 10 to 100 nM
CN(C)CCOc1cccc(-n2nc(C(C)(C)C)cc2NC(=O)N[C@H]2CC[C@@H](Oc3ccc4nnc(N5CCCCC5)n4c3)c3ccccc32)c1 [Example 40, 1-{5-tert-Butyl-2-[3-(2-dimethylamino-ethoxy)-phenyl]-2H-pyrazol-3-yl}-3-[(1S,4R)-4-(3-piperidin-1-yl-[1,2,4]triazolo[4,3-a]pyridin-6-yloxy)-1,2,3,4-tetrahydro-naphthalen-1-yl]-urea] | < 10 nM | < 10 nM
Cc1ccc(-n2nc(C(C)(C)C)cc2NC(=O)N[C@H]2CC[C@@H](Oc3ccc4nnc(N5CCC(CO)CC5)n4c3)c3ccccc32)cc1 [Example 54, 1-(5-tert-Butyl-2-p-tolyl-2H-pyrazol-3-yl)-3-{(1S,4R)-4-[3-(4-hydroxymethyl-piperidin-1-yl)-[1,2,4]triazolo[4,3-a]pyridin-6-yloxy]-1,2,3,4-tetrahydro-naphthalen-1-yl}-urea] | < 10 nM | < 10 nM
C[C@@H]1CCC[C@H](C)N1c1nnc2ccc(O[C@@H]3CC[C@H](NC(=O)Nc4cc(C(C)(C)C)nn4-c4cccc(OCCN(C)C)c4)c4ccccc43)cn12 [Example 96, 1-{5-tert-Butyl-2-[3-(2-dimethylamino-ethoxy)-phenyl]-2H-pyrazol-3-yl}-3-{(1S,4R)-4-[3-(cis-2,6-dimethyl-piperidin-1-yl)-[1,2,4]triazolo[4,3-a]pyridin-6-yloxy]-1,2,3,4-tetrahydro-naphthalen-1-yl}-urea formate salt] | < 10 nM | < 10 nM
C[C@H]1CCCCN1c1nnc2ccc(O[C@@H]3CC[C@H](NC(=O)Nc4cc(C(C)(C)C)nn4C)c4ccccc43)cn12 [Example 126, 1-(5-tert-Butyl-2-methyl-2H-pyrazol-3-yl)-3-{(1S,4R)-4-[3-((S)-2-methyl-piperidin-1-yl)-[1,2,4]triazolo[4,3-a]pyridin-6-yloxy]-1,2,3,4-tetrahydronaphthalen-1-yl]-urea] | < 10 nM | < 10 nM
C[C@H]1CCCCN1c1nnc2ccc(O[C@@H]3CC[C@H](NC(=O)Nc4cc(C(C)(C)C)nn4CCN(C)C)c4ccccc43)cn12 [Example 127, 1-[5-tert-Butyl-2-(2-dimethylamino-ethyl)-2H-pyrazol-3-yl]-3-{(1S,4R)-4-[3-((S)-2-methyl-piperidin-1-yl)-[1,2,4]triazolo[4,3-a]pyridin-6-yloxy]-1,2,3,4-tetrahydro-naphthalen-1-yl}-urea formate salt] | < 10 nM | < 10 nM
Cc1ccc(-n2nc(C(C)(C)C)cc2NC(=O)N[C@H]2CC[C@@H](Oc3ccc4nnc(C5(N(C)C)CCCC5)n4c3)c3ccccc32)cc1 [Example 99, 1-(5-tert-Butyl-2-p-tolyl-2H-pyrazol-3-yl)-3-{(1S,4R)-4-[3-(1-dimethylamino-cyclopentyl)-[1,2,4]triazolo[4,3-a]pyridin-6-yloxy]-1,2,3,4-tetrahydro-naphthalen-1-yl}-urea] | < 10 nM | < 10 nM
Cc1ccc(-n2nc(C(C)(C)C)cc2NC(=O)N[C@H]2CC[C@@H](Oc3ccc4nnc(N5CCC(C(C)(C)O)CC5)n4c3)c3ccccc32)cc1 [Example 74, 1-(5-tert-Butyl-2-p-tolyl-2H-pyrazol-3-yl)-3-((1S,4R)-4-{3-[4-(1-hydroxy-1-methyl-ethyl)-piperidin-1-yl]-[1,2,4]triazolo[4,3-a]pyridin-6-yloxy}-1,2,3,4-tetrahydro-naphthalen-1-yl)-urea] | < 10 nM | < 10 nM
CN(C)CCOc1cccc(-n2nc(C(C)(C)C)cc2NC(=O)N[C@H]2CC[C@@H](Oc3ccc4nnc(N5C6CCCC5CC6)n4c3)c3ccccc32)c1 [Example 122, 1-{(1S,4R)-4-[3-(8-Aza-bicyclo[3.2.1]oct-8-yl)-[1,2,4]triazolo[4,3-a]pyridin-6-yloxy]-1,2,3,4-tetrahydro-naphthalen-1-yl}-3-{5-tert-butyl-2-[3-(2-dimethylamino-ethoxy)-phenyl]-2H-pyrazol-3-yl}-urea formate salt] | < 10 nM | < 10 nM
